{"source": "patent US20130005802A1", "about": "“TREATMENT OF WNT/FRIZZLED-RELATED DISEASES” (priority 2009, published 2013)", "key": {"Dvl-2": {"system": "Dvl-2", "assay": "Western blot of cytosolic Dvl-2 in colorectal cancer cells", "format": "cell-based", "protocol": "CRC explants and colorectal cancer cell lines were cultured in 6-well plates. […] After washing cells with PBS three times, hypotonic lysis buffer consist of 10 mM Tris-HCl, pH7.4 and 0.2 mM MgCl2, supplemented with 1× Halt Protease and Phosphatase Inhibitor Cocktail (Thermo Scientific Pierce Protein Research Products, Rockford, Ill.) were applied to make cell lyates for Western Blot.\nAfter washing cells with PBS, cell lysates were made with hypotonic lysis buffer."}, "fibroblasts": {"system": "fibroblasts", "assay": "Flow-based cytotoxicity assay (annexin V), fibroblasts", "format": "cell-based", "settings": "3 days, 0.2-20 μM", "protocol": "After 3 days incubation, all cells were harvested with 0.05% trypsin/EDTA and spun down by centrifugation. Cells were labeled with biotin-conjugated Annexin V, and then stained with 7-AAD and Streptavidin-APC. Samples were acquired by FACSCalibur machine (BD Bioscience) and analyzed with CellQuest software. Cells were analyzed for expression of Annexin V as a marker of apoptosis.\nAnnexin V may be used as a marker for apoptosis and other forms of cell death. […] After 3 days of incubation, all cells were harvested with 0.05% trypsin/EDTA, labeled with biotin-conjugated Annexin V, and then stained with 7-AAD and streptavidin-APC. Samples were acquired by FACSCalibur, and percentages of annexin V-positive cells were analyzed and plotted as shown in FIG. 11. Cells were analyzed for expression of Annexin V as a marker of apoptosis."}, "β-catenin": {"system": "β-catenin", "assay": "Immunohistochemistry of β-catenin in treated tumors", "format": "in vivo, NOD/SCID mice", "settings": "200 mg/kg, 2 or 3 weeks", "protocol": "Paraffin-embedded specimens were cut into 4 μm-thick of sequential sections. After dewaxing in xylene and rehydrating stepwise in ethanol, sections were subjected to heat-induced antigen retrieval. Endogenous peroxidase activity was blocked with 3% H2O2, and non-specific binding was blocked with non-immune horse sera. Sections were then incubated with primary antibodies overnight at 4C. Anti-β-catenin (sc-65483, Santa Cruz Biotechnology, Inc., Santa Cruz, Calif.) and anti-Dvl-2 (sc-8026, Santa Cruz Biotechnology, Inc., Santa Cruz, Calif.) monoclonal antibodies were used at (1:50) dilution. After rinsing the sections were incubated with the biotinylated secondary antibody (1:200 dilution; Dakopatts, Copenhagen, Denmark) for 30 min at room temperature and then with the avidin-biotin peroxidase complex from the Vector Elite ABC kit (Vector Laboratories, Burlingame, Calif.) according to the manufacturer's instructions. Visualization was achieved using 3,3′-diaminobenzidine tetrahydrochloride and H2O2. Specimens were counterstained with hematoxylin.\nNOD/SCID mice were implanted with colorectal cancer explants or cell lines. […] Tumors were excised and fixed with 10% neutralized, buffered formalin. Paraffin-embedded specimens were cut into 4 μm-thick of sequential sections. After dewaxing and rehydration, heat-induced antigen retrieval was performed. […]"}}}
{"smiles": "O=C(Nc1ccc([N+](=O)[O-])cc1Cl)c1cc(Cl)ccc1O", "note": "[niclosamide]", "values": [{"measurement": "cytosolic Dvl-2 expression", "setting": "Dvl-2; CRC057 and HCT116, 1, 5, 10 μM, 18 hr", "result": "downregulated"}, {"measurement": "cytosolic Dvl-2 expression", "setting": "Dvl-2; HT29 cells", "result": "milder change"}, {"measurement": "apoptotic cell death (annexin V)", "setting": "fibroblasts", "result": "did not show a significant increase"}, {"measurement": "cytoplasmic expression of β-catenin in tumors vs control", "setting": "β-catenin", "result": "decreased levels"}]}
